One test has as its system Neisseria gonorrhoeae. As to the kind of experiment: MIC. To be noted: IHMA/CARB-X isolates 1997 to 2021, N=90.
A further test deals with E. coli gyrase (Escherichia coli, UniProt P0AES4). As to the kind of experiment: E. coli gyrase supercoiling inhibition. Format: biochemical.
Test [1] relates to MDR Gram-negative and Gram-positive pathogens. As to the kind of experiment: MIC.
For the next test, the target named is E. coli topoisomerase IV (Escherichia coli, UniProt P0AFI2). As to the kind of experiment: E. coli topoisomerase IV decatenation inhibition. Format: biochemical.
In a further test the target is hERG K+ channel (Homo sapiens, UniProt Q12809). As to the kind of experiment: hERG automated patch-clamp. Format: cell-based. (Block of hERG is tested as a sign of cardiac risk.)

pIC50: −log10 of the molar value. Converted amounts (≈) assume the structure as drawn. Where only a bound is given, the exact number is not on record here.

E. coli gyrase, sequence (P0AES4 whole entry): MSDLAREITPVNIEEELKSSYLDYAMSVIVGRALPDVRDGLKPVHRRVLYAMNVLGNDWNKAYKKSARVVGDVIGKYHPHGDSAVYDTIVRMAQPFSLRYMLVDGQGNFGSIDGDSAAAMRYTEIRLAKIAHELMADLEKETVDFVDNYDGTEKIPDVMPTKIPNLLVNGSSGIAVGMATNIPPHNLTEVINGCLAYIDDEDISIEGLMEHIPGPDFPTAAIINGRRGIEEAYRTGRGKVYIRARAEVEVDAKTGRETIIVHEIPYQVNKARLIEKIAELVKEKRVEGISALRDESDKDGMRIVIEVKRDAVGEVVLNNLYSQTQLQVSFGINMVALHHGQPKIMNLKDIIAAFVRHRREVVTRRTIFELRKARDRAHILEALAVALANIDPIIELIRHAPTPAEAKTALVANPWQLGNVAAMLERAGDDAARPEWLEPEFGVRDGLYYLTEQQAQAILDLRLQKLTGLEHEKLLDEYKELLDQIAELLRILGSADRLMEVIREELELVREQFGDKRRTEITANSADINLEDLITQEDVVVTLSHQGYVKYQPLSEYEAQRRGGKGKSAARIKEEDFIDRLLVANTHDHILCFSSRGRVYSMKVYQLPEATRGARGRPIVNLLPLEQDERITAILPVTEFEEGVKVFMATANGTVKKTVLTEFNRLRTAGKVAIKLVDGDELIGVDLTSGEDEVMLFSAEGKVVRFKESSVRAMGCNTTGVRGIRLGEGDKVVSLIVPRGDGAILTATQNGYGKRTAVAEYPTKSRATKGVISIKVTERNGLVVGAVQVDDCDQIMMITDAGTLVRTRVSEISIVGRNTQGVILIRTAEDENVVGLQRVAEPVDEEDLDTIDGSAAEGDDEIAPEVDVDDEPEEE
E. coli topoisomerase IV, sequence (P0AFI2 whole entry): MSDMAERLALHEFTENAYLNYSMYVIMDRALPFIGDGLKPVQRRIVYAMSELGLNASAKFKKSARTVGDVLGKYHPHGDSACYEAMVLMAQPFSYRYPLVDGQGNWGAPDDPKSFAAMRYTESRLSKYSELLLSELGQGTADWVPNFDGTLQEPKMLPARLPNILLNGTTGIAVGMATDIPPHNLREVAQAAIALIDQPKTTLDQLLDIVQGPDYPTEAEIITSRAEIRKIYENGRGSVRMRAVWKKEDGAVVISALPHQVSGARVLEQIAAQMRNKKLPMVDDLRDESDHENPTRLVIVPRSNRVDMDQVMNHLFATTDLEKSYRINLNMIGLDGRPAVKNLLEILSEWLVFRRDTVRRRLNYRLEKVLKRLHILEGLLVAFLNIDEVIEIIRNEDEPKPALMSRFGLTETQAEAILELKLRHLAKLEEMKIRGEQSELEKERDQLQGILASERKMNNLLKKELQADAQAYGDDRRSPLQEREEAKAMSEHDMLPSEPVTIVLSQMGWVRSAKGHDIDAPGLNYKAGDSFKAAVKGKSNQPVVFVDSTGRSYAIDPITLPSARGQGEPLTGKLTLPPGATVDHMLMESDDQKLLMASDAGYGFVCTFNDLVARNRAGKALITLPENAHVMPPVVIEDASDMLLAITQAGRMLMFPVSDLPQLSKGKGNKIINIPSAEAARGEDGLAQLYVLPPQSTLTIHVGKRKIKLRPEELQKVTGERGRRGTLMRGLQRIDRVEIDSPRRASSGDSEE
E. coli topoisomerase IV, sequence (P20083 whole entry partner): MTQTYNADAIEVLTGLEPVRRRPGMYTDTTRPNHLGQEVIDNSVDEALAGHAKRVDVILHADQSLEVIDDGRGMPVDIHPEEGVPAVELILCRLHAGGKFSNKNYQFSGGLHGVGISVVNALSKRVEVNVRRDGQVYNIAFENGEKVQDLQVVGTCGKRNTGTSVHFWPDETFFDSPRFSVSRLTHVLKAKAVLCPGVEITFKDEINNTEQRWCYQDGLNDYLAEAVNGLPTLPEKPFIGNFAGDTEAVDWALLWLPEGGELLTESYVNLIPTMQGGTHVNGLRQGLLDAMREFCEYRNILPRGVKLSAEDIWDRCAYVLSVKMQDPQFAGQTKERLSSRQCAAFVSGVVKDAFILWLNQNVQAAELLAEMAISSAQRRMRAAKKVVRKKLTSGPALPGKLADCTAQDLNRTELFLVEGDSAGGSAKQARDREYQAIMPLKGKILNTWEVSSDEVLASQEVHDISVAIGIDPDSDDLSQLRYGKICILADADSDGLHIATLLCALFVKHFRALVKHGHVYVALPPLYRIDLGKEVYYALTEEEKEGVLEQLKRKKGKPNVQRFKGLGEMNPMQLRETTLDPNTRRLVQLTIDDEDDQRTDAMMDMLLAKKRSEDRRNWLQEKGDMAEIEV
hERG K+ channel, sequence (Q12809 whole entry): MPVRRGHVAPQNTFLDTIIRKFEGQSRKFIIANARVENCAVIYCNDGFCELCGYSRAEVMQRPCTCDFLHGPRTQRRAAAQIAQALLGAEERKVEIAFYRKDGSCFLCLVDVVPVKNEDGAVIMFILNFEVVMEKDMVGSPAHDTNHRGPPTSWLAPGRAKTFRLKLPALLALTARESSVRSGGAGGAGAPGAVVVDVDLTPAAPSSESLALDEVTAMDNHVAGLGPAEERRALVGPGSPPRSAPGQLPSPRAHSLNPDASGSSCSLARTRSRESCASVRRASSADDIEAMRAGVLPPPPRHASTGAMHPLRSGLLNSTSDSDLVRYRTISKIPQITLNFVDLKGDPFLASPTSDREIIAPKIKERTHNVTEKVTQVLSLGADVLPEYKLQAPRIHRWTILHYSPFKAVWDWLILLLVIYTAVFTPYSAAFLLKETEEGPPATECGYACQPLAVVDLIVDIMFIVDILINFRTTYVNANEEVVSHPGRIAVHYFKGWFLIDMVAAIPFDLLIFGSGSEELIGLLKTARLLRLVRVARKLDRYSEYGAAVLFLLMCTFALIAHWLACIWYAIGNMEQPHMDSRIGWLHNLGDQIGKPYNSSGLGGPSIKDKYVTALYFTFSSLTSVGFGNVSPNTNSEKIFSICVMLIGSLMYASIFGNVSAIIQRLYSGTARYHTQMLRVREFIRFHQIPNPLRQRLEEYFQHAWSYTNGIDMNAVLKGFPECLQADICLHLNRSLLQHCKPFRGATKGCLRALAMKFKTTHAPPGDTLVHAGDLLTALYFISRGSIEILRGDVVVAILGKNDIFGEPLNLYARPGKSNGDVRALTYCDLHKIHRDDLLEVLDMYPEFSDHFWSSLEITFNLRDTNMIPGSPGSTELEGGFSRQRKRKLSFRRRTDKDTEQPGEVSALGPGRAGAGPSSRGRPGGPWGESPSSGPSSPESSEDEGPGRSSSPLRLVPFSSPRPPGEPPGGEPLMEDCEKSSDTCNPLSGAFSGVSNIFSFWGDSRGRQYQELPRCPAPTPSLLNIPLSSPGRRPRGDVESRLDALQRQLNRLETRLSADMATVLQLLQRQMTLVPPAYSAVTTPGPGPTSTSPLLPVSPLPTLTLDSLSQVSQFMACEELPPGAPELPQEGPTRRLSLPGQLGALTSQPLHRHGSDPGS

A word on the MIC90: it is the lowest concentration that inhibits either 90% of growth or 90% of the strains tested, depending on the study. A higher MIC90 goes with weaker potency. For the compound `CO/N=C(\C(=O)N[C@@H]1C(=O)N2C(C(=O)O)=C(CSc3nc(=O)c(=O)[nH]n3C)CS[C@H]12)c1csc(N)n1` [Ceftriaxone], the MIC90 in the test on Neisseria gonorrhoeae was 0.06 µg/mL (≈ 0.108 µM).

The term pIC50 denotes the negative decadic logarithm of the IC50, by convention in mol/L. Read a high pIC50 as a small IC50. A word on the MIC: it is the lowest concentration that inhibits growth of the organism. For the compound `NCCCC1CN(c2ccc3c(n2)NC(=O)CO3)C(=O)O1` (stereo not drawn) [Compound 1, 6-[5-(3-Aminopropyl)−2-oxo-3-oxazolidinyl]−2H-pyrido[3,2-b]−1,4-oxazin-3(4H)-one], the pIC50 was 4.88 at E. coli gyrase and 4.57 against E. coli topoisomerase IV. Besides, the MIC in test [1] lay in the range of 80 to 160 µg/mL (≈ 274 to 547 µM).

Turning to `CN1C(=O)Cc2ccc(F)c(CCNCC[C@H]3CN(c4ccc5c(n4)NC(=O)CO5)C(=O)O3)c21` [Compound 3, 6-[(5S)−5-[2-[[2-(6-fluoro-2,3-dihydro-1-methyl-2-oxo-1H-indol-7-yl)ethyl]amino]ethyl]−2-oxo-3-oxazolidinyl]−2H-pyrido[3,2-b]−1,4-oxazin-3(4H)-one], the “improvement in gyrase supercoiling and topoIV decatenation IC50 over compound 1” value on E. coli gyrase is greater than 100 fold. On E. coli topoisomerase IV, the pIC50 was 6.44.

`CN1C(=O)Cc2ccc(F)c(CCNC[C@H]3CN(c4ccc5c(n4)NC(=O)CO5)C(=O)O3)c21` [Compound 4, (S)−6-(5-(((2-(6-fluoro-1-methyl-2-oxoindolin-7-yl)ethyl)amino)methyl)−2-oxooxazolidin-3-yl)−2H-pyrido[3,2-b] [1,4] oxazin-3(4H)-one]: the figures for the negative logarithm of the IC50 (pIC50) against E. coli gyrase and on E. coli topoisomerase IV were 7.44 and 7.24, respectively. With `Cn1c(=O)ccc2ccc(F)c(CCNC[C@@H]3CN(c4cnc5c(n4)NC(=O)CO5)C(=O)O3)c21` [Compound 8, 6-[(5 R)−5-[[[2-(7-Fluoro-1,2-dihydro-1-methyl-2-oxo-8-quinolinyl)ethyl]amino]methyl]−2-oxo-3-oxazolidinyl]−2H-pyrazino[2,3-b]−1,4-oxazin-3(4H)-one], on hERG K+ channel, the pIC50 was 4.22.

For the origin of these results see PMC11410943 (Nature Communications, 2024).
